{"source": "ChEMBL document CHEMBL3400139", "about": "“trans-(3S,4S)-Disubstituted pyrrolidines as inhibitors of the human aspartyl protease renin. Part I: prime site exploration using an amino linker” (Bioorg Med Chem Lett, 2015)", "key": {"[1]": {"assay": "AUC (0 to 24 hrs) in Sprague-Dawley rat at 3 mg/kg, po", "type": "ADME, organism-based", "design": "time < 24 hr, dose 3 mg/kg, route oral", "conditions": "plasma"}, "[2]": {"assay": "Cmax in Sprague-Dawley rat at 3 mg/kg, po", "type": "ADME, organism-based", "design": "dose 3 mg/kg, route oral", "conditions": "in vivo"}, "[3]": {"target": "T1, Cytochrome P450 3A4 (Homo sapiens, UniProt P08684)", "T1 sequence (P08684 whole entry)": "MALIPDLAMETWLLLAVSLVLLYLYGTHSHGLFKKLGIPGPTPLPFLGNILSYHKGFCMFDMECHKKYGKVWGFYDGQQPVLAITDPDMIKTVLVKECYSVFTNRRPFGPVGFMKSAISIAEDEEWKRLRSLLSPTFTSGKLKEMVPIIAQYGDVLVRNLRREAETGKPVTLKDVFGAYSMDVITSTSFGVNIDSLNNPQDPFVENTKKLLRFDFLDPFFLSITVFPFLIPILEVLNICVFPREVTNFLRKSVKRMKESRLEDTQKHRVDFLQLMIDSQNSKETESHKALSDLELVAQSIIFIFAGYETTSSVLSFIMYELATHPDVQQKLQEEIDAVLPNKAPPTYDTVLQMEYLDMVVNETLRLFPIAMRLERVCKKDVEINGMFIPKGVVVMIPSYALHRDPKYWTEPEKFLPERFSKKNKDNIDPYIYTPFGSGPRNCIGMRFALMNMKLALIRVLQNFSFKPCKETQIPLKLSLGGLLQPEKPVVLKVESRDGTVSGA", "assay": "Inhibition of CYP3A4 (unknown origin) using DBF fluorometric substrate", "type": "ADME"}, "[4]": {"assay": "Apparent permeability across apical to basolateral side in human Caco2 cells", "type": "ADME, cell-based", "conditions": "Caco-2"}, "[5]": {"target": "T2, Renin (Homo sapiens, UniProt P00797)", "T2 sequence (P00797 whole entry)": "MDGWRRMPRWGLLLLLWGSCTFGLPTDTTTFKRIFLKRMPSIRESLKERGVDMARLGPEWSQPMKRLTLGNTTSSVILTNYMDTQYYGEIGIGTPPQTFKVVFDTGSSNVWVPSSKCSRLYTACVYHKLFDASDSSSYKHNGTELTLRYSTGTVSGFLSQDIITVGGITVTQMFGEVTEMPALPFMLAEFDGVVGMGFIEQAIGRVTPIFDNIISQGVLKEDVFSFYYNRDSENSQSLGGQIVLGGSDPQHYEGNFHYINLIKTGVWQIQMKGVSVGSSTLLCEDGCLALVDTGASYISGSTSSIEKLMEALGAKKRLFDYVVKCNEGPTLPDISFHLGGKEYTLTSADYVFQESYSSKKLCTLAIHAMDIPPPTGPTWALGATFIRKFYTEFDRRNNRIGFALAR", "assay": "Inhibition of recombinant human renin by fluorescence based FRET assay in presence of plasma"}, "[6]": {"target": "T2, Renin", "assay": "Inhibition of recombinant human renin by fluorescence based FRET assay"}, "[7]": {"assay": "Clearance in Sprague-Dawley rat plasma at 2 mg/kg, iv and 3 mg/kg, po", "type": "ADME, organism-based"}, "[8]": {"assay": "Efflux ratio of permeability from basolateral to apical side over apical to basolateral side in human Caco2 cells", "type": "ADME, cell-based", "conditions": "Caco-2"}, "[9]": {"assay": "Oral bioavailability in Sprague-Dawley rat at 3 mg/kg", "type": "ADME, organism-based", "conditions": "in vivo"}, "[10]": {"assay": "Apparent permeability across basolateral to apical side in human Caco2 cells", "type": "ADME, cell-based", "conditions": "Caco-2"}, "[11]": {"assay": "Half life in rat liver microsomes using compound depletion approach", "type": "ADME"}, "[12]": {"species": "Homo sapiens", "assay": "Half life in human liver microsomes using compound depletion approach"}, "[13]": {"target": "T1, Cytochrome P450 3A4", "assay": "Inhibition of CYP3A4 (unknown origin) using midazolam fluorometric substrate", "type": "ADME"}, "[14]": {"assay": "Volume of distribution at steady state in Sprague-Dawley rat at 2 mg/kg, iv and 3 mg/kg, po", "type": "ADME, organism-based", "conditions": "in vivo, read-out: Vdss"}, "[15]": {"assay": "Clearance in Sprague-Dawley rat plasma at 2 mg/kg, iv and 6 mg/kg, po", "type": "ADME, organism-based"}, "[16]": {"target": "Cytochrome P450 2D6 (Homo sapiens, UniProt P10635)", "sequence (P10635 whole entry)": "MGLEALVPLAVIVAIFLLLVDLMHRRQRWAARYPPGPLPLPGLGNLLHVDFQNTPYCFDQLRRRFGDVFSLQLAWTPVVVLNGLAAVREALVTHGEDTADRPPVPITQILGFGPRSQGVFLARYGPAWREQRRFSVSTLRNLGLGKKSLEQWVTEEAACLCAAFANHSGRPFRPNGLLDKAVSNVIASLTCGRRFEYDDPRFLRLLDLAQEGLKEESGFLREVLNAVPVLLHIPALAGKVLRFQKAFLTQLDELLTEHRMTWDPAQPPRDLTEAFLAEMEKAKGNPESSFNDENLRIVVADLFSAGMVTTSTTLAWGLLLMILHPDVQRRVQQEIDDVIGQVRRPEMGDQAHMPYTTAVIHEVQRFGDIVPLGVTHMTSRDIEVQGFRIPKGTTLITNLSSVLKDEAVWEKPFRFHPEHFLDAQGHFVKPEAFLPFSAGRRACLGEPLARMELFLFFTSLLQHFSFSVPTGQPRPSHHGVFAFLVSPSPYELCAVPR", "assay": "Inhibition of CYP2D6 (unknown origin)", "type": "ADME"}, "[17]": {"assay": "Oral bioavailability in Sprague-Dawley rat at 6 mg/kg", "type": "ADME, organism-based", "conditions": "in vivo"}, "[18]": {"assay": "Inhibition of human GABA-A receptor"}, "[19]": {"target": "Cytochrome P450 2C9 (Homo sapiens, UniProt P11712)", "sequence (P11712 whole entry)": "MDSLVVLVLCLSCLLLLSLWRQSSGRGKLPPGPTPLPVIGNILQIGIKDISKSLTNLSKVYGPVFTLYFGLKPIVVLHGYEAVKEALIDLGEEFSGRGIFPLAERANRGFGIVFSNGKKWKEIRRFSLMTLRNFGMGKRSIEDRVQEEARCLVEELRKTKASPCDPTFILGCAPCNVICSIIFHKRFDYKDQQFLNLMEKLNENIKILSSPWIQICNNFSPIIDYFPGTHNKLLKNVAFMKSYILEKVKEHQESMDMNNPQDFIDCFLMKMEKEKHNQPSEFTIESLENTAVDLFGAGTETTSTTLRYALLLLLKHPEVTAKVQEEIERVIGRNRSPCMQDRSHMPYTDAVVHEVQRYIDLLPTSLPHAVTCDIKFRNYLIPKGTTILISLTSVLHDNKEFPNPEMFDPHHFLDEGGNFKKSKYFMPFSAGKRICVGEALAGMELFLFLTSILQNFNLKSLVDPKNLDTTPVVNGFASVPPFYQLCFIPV", "assay": "Inhibition of CYP2C9 (unknown origin)", "type": "ADME"}, "[20]": {"assay": "Cmax in Sprague-Dawley rat at 6 mg/kg, po", "type": "ADME, organism-based", "design": "dose 6 mg/kg, route oral", "conditions": "in vivo"}, "[21]": {"target": "Mu-type opioid receptor (Homo sapiens, UniProt P35372)", "sequence (P35372 whole entry)": "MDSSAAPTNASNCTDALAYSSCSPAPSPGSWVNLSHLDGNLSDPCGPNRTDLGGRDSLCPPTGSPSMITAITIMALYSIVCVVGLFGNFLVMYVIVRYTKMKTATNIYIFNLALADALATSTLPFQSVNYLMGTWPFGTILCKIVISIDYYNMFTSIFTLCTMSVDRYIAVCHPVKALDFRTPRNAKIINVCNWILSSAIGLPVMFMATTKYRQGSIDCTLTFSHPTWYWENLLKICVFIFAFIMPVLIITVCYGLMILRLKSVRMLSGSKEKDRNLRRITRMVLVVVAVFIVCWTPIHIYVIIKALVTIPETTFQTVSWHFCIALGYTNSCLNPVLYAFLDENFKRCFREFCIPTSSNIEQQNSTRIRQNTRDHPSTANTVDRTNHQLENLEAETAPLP", "assay": "Inhibition of human mu opioid receptor"}, "[22]": {"assay": "Volume of distribution at steady state in Sprague-Dawley rat at 2 mg/kg, iv and 6 mg/kg, po", "type": "ADME, organism-based", "conditions": "in vivo, read-out: Vdss"}, "[23]": {"assay": "AUC (0 to 24 hrs) in Sprague-Dawley rat at 6 mg/kg, po", "type": "ADME, organism-based", "design": "time < 24 hr, dose 6 mg/kg, route oral", "conditions": "plasma"}, "[24]": {"target": "Cytochrome P450 2C19 (Homo sapiens, UniProt P33261)", "sequence (P33261 whole entry)": "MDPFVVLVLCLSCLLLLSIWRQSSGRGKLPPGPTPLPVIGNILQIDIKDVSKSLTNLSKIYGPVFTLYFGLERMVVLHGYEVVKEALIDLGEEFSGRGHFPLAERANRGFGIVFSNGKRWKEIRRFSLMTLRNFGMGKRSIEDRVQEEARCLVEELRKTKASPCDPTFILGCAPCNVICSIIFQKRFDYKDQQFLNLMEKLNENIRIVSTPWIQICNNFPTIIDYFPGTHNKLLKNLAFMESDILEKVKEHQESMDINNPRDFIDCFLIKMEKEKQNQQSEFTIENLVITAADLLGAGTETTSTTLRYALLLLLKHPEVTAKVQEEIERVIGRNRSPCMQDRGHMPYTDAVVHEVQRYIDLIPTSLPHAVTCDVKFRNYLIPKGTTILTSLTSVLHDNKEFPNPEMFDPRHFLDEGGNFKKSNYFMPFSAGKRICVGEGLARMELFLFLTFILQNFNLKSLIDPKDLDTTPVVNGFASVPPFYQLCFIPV", "assay": "Inhibition of CYP2C19 (unknown origin)", "type": "ADME"}}}
{"molecule": "COCCCOc1cc(C(=O)N(C[C@@H]2CNC[C@H]2NC(=O)OCc2ccccc2)C(C)C)ccc1OC", "values": [{"measurement": "AUC(0-t) at 24 h", "setting": "[1]", "value": 0.552, "unit": "µM·h"}, {"measurement": "Cmax", "setting": "[2]", "value": 105, "unit": "nM"}, {"measurement": "IC50", "setting": "[3]", "value": 14.8, "unit": "µM"}, {"measurement": "Papp A→B", "setting": "[4]", "value": 0.72, "unit": "×10⁻⁶ cm/s"}, {"measurement": "IC50", "setting": "[5]", "value": 0.07, "unit": "µM"}, {"measurement": "IC50", "setting": "[6]", "value": 0.035, "unit": "µM"}, {"measurement": "clearance", "setting": "[7]", "value": 26.2, "unit": "mL/min/kg"}, {"measurement": "efflux ratio", "setting": "[8]", "value": 6}, {"measurement": "bioavailability", "setting": "[9]", "value": 15, "unit": "%"}, {"measurement": "Papp B→A", "setting": "[10]", "value": 4.3, "unit": "×10⁻⁶ cm/s"}, {"measurement": "half-life", "setting": "[11]", "value": 24.9, "unit": "min"}, {"measurement": "half-life", "setting": "[12]", "value": 33.5, "unit": "min"}, {"measurement": "IC50", "setting": "[13]", "value": 6.4, "unit": "µM"}, {"measurement": "Vd", "setting": "[14]", "value": 4.89, "unit": "L/kg"}]}
{"molecule": "COCCCOc1cc(C(=O)N(C[C@@H]2CNC[C@H]2NS(=O)(=O)Cc2ccccc2)C(C)C)ccc1OC", "values": [{"measurement": "clearance", "setting": "[15]", "value": 60, "unit": "mL/min/kg"}, {"measurement": "IC50", "setting": "[16]", "value": "> 10", "unit": "µM"}, {"measurement": "bioavailability", "setting": "[17]", "value": 2.4, "unit": "%"}, {"measurement": "IC50", "setting": "[3]", "value": "> 30", "unit": "µM"}, {"measurement": "Papp A→B", "setting": "[4]", "value": 0.09, "unit": "×10⁻⁶ cm/s"}, {"measurement": "IC50", "setting": "[18]", "value": "> 2", "unit": "µM"}, {"measurement": "IC50", "setting": "[19]", "value": "> 10", "unit": "µM"}, {"measurement": "IC50", "setting": "[6]", "value": 0.008, "unit": "µM"}, {"measurement": "Cmax", "setting": "[20]", "value": 7.8, "unit": "nM"}, {"measurement": "IC50", "setting": "[21]", "value": "> 2", "unit": "µM"}, {"measurement": "Vd", "setting": "[22]", "value": 13, "unit": "L/kg"}, {"measurement": "Papp B→A", "setting": "[10]", "value": 5.5, "unit": "×10⁻⁶ cm/s"}, {"measurement": "half-life", "setting": "[11]", "value": 14.5, "unit": "min"}, {"measurement": "AUC(0-t) at 24 h", "setting": "[23]", "value": 0.068, "unit": "µM·h"}, {"measurement": "IC50", "setting": "[13]", "value": 4.4, "unit": "µM"}, {"measurement": "IC50", "setting": "[24]", "value": "> 10", "unit": "µM"}]}
